Measured values taken from patent publication US10793564B2, “Amino acid compounds and methods of use” (Pliant Therapeutics, Inc., priority 2018, dated 2020).

Target: recombinant human integrin αVβ6 (Homo sapiens (Human), UniProt P06756+P18564)
Assay: Solid phase integrin αVβ6 binding assay
Conditions: inhibition of recombinant TGFβ1 LAP binding to coated integrin, IC50 presented in four ranges, read-out: αvβ6 Inhibition IC50 (nM) - range
Procedure: (§1) Microplates were coated with recombinant human integrin αVβ6 (2 μg/mL) in PBS (100 μL/well 25° C., overnight). The coating solution was removed, washed with wash buffer (0.05% Tween 20; 0.5 mM MnCl2; in 1×TBS). The plate was blocked with 200 μL/well of Block Buffer (1% BSA; 5% sucrose; 0.5 mM MnCl2; in 1×TBS) at 37° C. for 2 h. Dilutions of testing compounds and recombinant TGFβ1 LAP (0.67 μg/mL) in binding buffer (0.05% BSA; 2.5% sucrose; 0.5 mM MnCl2; in 1×TBS) were added. The plate was incubated for 2 hours at 25° C., washed, and incubated for 1 hour with Biotin-Anti-hLAP. Bound antibody was detected by peroxidase-conjugated streptavidin. The IC50 values for testing compounds were calculated by a four-parameter logistic regression.
The compounds tested were compound samples prepared according to procedures described in the Synthetic Examples section, with the stereochemical purity as indicated in the Examples.
as §1, with “A third series of exemplary compounds was selected for testing in the solid phase integrin αVβ6 binding assay. The compounds tested were compound samples prepared according to procedures described in the Synthetic Examples section, with the stereochemical purity as indicated in the Examples. As in Example B1, microplates were” for “Microplates were”, “(0.67 g/mL)” for “(0.67 μg/mL)”

Sequence of recombinant human integrin αVβ6 (P06756 31-992): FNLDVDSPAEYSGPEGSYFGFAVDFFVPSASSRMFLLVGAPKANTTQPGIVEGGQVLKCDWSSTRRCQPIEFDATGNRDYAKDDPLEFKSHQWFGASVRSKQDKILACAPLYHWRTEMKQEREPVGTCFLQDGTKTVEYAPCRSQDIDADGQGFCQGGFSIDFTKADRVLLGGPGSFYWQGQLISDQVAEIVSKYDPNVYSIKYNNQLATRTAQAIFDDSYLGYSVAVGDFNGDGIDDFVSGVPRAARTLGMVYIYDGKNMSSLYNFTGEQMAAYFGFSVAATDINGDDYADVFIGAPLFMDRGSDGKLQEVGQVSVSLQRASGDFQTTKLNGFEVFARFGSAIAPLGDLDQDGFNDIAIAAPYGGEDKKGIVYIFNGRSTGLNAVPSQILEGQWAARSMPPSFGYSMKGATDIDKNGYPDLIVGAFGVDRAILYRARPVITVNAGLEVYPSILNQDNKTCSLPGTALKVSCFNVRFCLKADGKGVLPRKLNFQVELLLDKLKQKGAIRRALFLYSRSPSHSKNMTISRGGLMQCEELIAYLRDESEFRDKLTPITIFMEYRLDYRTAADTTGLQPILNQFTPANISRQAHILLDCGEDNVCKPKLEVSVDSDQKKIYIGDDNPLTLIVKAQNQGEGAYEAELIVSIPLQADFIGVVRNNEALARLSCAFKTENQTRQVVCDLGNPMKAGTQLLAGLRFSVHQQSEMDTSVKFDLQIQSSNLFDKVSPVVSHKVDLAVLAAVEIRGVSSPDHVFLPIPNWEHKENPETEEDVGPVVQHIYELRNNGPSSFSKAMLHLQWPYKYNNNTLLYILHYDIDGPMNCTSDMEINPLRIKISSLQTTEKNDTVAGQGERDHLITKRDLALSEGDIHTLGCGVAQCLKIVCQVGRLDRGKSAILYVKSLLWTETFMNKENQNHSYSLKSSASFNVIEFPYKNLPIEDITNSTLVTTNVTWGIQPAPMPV
Sequence of recombinant human integrin αVβ6 (P18564 22-707): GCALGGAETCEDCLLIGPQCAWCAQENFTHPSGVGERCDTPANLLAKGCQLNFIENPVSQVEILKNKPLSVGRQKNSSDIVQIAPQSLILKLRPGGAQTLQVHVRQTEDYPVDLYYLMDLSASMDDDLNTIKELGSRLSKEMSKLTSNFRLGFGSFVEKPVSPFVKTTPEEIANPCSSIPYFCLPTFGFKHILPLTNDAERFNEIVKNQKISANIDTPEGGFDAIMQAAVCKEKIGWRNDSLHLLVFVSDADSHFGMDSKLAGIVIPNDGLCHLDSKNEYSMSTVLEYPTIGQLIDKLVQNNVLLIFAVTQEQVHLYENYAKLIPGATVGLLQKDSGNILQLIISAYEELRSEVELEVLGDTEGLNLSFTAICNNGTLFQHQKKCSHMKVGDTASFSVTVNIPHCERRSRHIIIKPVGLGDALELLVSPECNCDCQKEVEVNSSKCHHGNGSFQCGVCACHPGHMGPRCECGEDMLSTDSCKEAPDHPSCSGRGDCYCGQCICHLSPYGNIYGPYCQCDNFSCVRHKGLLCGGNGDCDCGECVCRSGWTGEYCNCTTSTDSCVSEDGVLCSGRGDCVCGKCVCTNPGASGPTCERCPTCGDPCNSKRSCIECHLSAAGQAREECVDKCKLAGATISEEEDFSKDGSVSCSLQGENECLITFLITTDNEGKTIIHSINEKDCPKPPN

IC50 [nM] | SMILES
< 50 | COCCN(CCCCc1ccc2c(n1)NCCC2)CC[C@H](Nc1cc(-n2cccn2)ncn1)C(=O)O [Compound 44, (S)-2-((6-(1H-pyrazol-1-yl)pyrimidin-4-yl)amino)-4-((2-methoxyethyl) (4-(5,6,7,8-tetrahydro-1,8-naphthyridin-2-yl)butyl)amino) butanoic Acid]
50 to 250 | COC[C@@H](F)CN(CCCCc1ccc2c(n1)NCCC2)CC[C@H](Nc1ncc(Br)cn1)C(=O)O [Compound 86, (S)-2-((5-bromopyrimidin-2-yl)amino)-4-(((S)-2-fluoro-3-methoxypropyl) (4-(5,6,7,8-tetrahydro-1,8-naphthyridin-2-yl)butyl)amino) butanoic Acid]
< 50 | COCCN(CCCCc1ccc2c(n1)NCCC2)CC[C@H](Nc1nccnc1C#N)C(=O)O [Compound 67, (S)-2-((3-cyanopyrazin-2-yl)amino)-4-((2-methoxyethyl) (4-(5,6,7,8-tetrahydro-1,8-naphthyridin-2-yl)butyl)amino) butanoic Acid]
50 to 250 | Cn1ncc2c(N[C@@H](CCN(CCCCc3ccc4c(n3)NCCC4)CCC(F)F)C(=O)O)ncnc21 [Compound 133, (S)-4-((3,3-difluoropropyl) (4-(5,6,7,8-tetrahydro-1,8-naphthyridin-2-yl)butyl)amino)-2-((1-methyl-1H-pyrazolo[3,4-d]pyrimidin-4-yl)amino) butanoic Acid]
< 50 | CO[C@H](C)CN(CCCCc1ccc2c(n1)NCCC2)CC[C@H](Nc1ccnc(C(F)(F)F)n1)C(=O)O [Compound 72, (S)-4-(((R)-2-methoxypropyl) (4-(5,6,7,8-tetrahydro-1,8-naphthyridin-2-yl)butyl)amino)-2-((2-(trifluoromethyl)pyrimidin-4-yl)amino) butanoic Acid]
> 1000 | COC[C@@H](F)CN(CCCCc1ccc2c(n1)NCCC2)CC[C@H](Nc1cc(-n2cccn2)ncn1)C(=O)O [Compound 108, (S)-2-((6-(1H-pyrazol-1-yl)pyrimidin-4-yl)amino)-4-(((S)-2-fluoro-3-methoxypropyl) (4-(5,6,7,8-tetrahydro-1,8-naphthyridin-2-yl)butyl)amino) butanoic Acid]
< 50 | O=C(O)[C@H](CCN(CCCCc1ccc2c(n1)NCCC2)CCOCC(F)F)Nc1ncnc2ccccc12 [Compound 50, (S)-4-((2-(2,2-difluoroethoxy)ethyl) (4-(5,6,7,8-tetrahydro-1,8-naphthyridin-2-yl)butyl)amino)-2-(quinazolin-4-ylamino) butanoic Acid]
50 to 250 | CC(C)(O)CN(CCCCc1ccc2c(n1)NCCC2)CC[C@H](Nc1ccncn1)C(=O)O [Compound 4, (S)-4-((2-hydroxy-2-methylpropyl) (4-(5,6,7,8-tetrahydro-1,8-naphthyridin-2-yl)butyl)amino)-2-(pyrimidin-4-ylamino) butanoic Acid]

The remaining lines, values behind:

SMILES | IC50 [nM]
COCCN(CCCCc1ccc2c(n1)NCCC2)CC[C@H](Nc1cc(C)nc(C(F)(F)F)n1)C(=O)O [Compound 26, (S)-4-((2-methoxyethyl) (4-(5,6,7,8-tetrahydro-1,8-naphthyridin-2-yl)butyl)amino)-2-((6-methyl-2-(trifluoromethyl)pyrimidin-4-yl)amino) butanoic Acid] | < 50
O=C(O)[C@H](CCN(CCCF)CCCCc1ccc2c(n1)NCCC2)Nc1ncc(C(F)(F)F)cn1 [Compound 137, (S)-4-((3-fluoropropyl) (4-(5,6,7,8-tetrahydro-1,8-naphthyridin-2-yl)butyl)amino)-2-((5-(trifluoromethyl)pyrimidin-2-yl)amino) butanoic Acid] | < 50
O=C(O)[C@H](CCN(CCCCc1ccc2c(n1)NCCC2)CCOc1ccccc1)Nc1ncc(C(F)(F)F)cn1 [Compound 89, (S)-4-((2-phenoxyethyl) (4-(5,6,7,8-tetrahydro-1,8-naphthyridin-2-yl)butyl)amino)-2-((5-(trifluoromethyl)pyrimidin-2-yl)amino) butanoic Acid] | < 50
N#Cc1cnc(N[C@@H](CCN(CCCCc2ccc3c(n2)NCCC3)CCOc2ccc(F)cc2)C(=O)O)nc1 [Compound 138, (S)-2-((5-cyanopyrimidin-2-yl)amino)-4-((2-(4-fluorophenoxy)ethyl) (4-(5,6,7,8-tetrahydro-1,8-naphthyridin-2-yl)butyl)amino) butanoic Acid] | < 50
COCCN(CCCCc1ccc2c(n1)NCCC2)CC[C@H](Nc1ncnc2cc(C(F)(F)F)ccc12)C(=O)O [Compound 13, (S)-4-((2-methoxyethyl) (4-(5,6,7,8-tetrahydro-1,8-naphthyridin-2-yl)butyl)amino)-2-((7-(trifluoromethyl)quinazolin-4-yl)amino) butanoic Acid] | 50 to 250
O=C(O)[C@H](CCN(CCCCc1ccc2c(n1)NCCC2)CCOc1cncc(F)c1)Nc1ncnc2ccccc12 [Compound 58, (S)-4-((2-((5-fluoropyridin-3-yl)oxy)ethyl) (4-(5,6,7,8-tetrahydro-1,8-naphthyridin-2-yl)butyl)amino)-2-(quinazolin-4-ylamino) butanoic Acid] | < 50
O=C(O)[C@H](CCN(CCCCc1ccc2c(n1)NCCC2)CC(F)F)Nc1nc(-c2cccnc2)nc2ccccc12 [Compound 99, (S)-4-((2,2-difluoroethyl) (4-(5,6,7,8-tetrahydro-1,8-naphthyridin-2-yl)butyl)amino)-2-((2-(pyridin-3-yl)quinazolin-4-yl)amino) butanoic Acid] | 250 to 1000
Cc1cc(C)n(CCN(CCCCc2ccc3c(n2)NCCC3)CC[C@H](Nc2ncnc3ccccc23)C(=O)O)n1 [Compound 45, (S)-4-((2-(3,5-dimethyl-1H-pyrazol-1-yl)ethyl) (4-(5,6,7,8-tetrahydro-1,8-naphthyridin-2-yl)butyl)amino)-2-(quinazolin-4-ylamino) butanoic Acid] | < 50
O=C(O)[C@H](CCN(CCO)CCCCc1ccc2c(n1)NCCC2)Nc1ncnc2ccccc12 [Compound 75, (S)-4-((2-hydroxyethyl) (4-(5,6,7,8-tetrahydro-1,8-naphthyridin-2-yl)butyl)amino)-2-(quinazolin-4-ylamino) butanoic Acid] | < 50
O=C(O)[C@H](CCN(CCCCc1ccc2c(n1)NCCC2)CC(F)F)Nc1ncc(Br)cn1 [Compound 96, (S)-2-((5-bromopyrimidin-2-yl)amino)-4-((2,2-difluoroethyl) (4-(5,6,7,8-tetrahydro-1,8-naphthyridin-2-yl)butyl)amino) butanoic Acid] | > 1000
Cc1nc(N[C@@H](CCN(CCCCc2ccc3c(n2)NCCC3)CCOC2CC2(F)F)C(=O)O)c2ccc(F)cc2n1 (stereo partly drawn) [Compound 42, (2S)-4-((2-(2,2-difluorocyclopropoxy)ethyl) (4-(5,6,7,8-tetrahydro-1,8-naphthyridin-2-yl)butyl)amino)-2-((7-fluoro-2-methylquinazolin-4-yl)amino) butanoic Acid] | < 50
CS(=O)(=O)CCN(CCCCc1ccc2c(n1)NCCC2)CC[C@H](Nc1ccnc(C(F)(F)F)n1)C(=O)O [Compound 104, (S)-4-((2-(methylsulfonyl)ethyl) (4-(5,6,7,8-tetrahydro-1,8-naphthyridin-2-yl)butyl)amino)-2-((2-(trifluoromethyl)pyrimidin-4-yl)amino) butanoic Acid] | > 1000
O=C(O)[C@H](CCN(CCCCc1ccc2c(n1)NCCC2)CCOCC(F)(F)F)Nc1ncnc2cccnc12 [Compound 51, (S)-2-(pyrido[3,2-d]pyrimidin-4-ylamino)-4-((4-(5,6,7,8-tetrahydro-1,8-naphthyridin-2-yl)butyl) (2-(2,2,2-trifluoroethoxy)ethyl)amino) butanoic Acid] | < 50
COCCN(CCCCc1ccc2c(n1)NCCC2)CC[C@H](Nc1ncnc2c(C(F)(F)F)cccc12)C(=O)O [Compound 15, (S)-4-((2-methoxyethyl) (4-(5,6,7,8-tetrahydro-1,8-naphthyridin-2-yl)butyl)amino)-2-((8-(trifluoromethyl)quinazolin-4-yl)amino) butanoic Acid] | < 50
O=C(O)[C@H](CCN(CCCCc1ccc2c(n1)NCCC2)CC(CO)CO)Nc1ncnc2ccccc12 [Compound 130, (S)-4-((3-hydroxy-2-(hydroxymethyl)propyl) (4-(5,6,7,8-tetrahydro-1,8-naphthyridin-2-yl)butyl)amino)-2-(quinazolin-4-ylamino) butanoic Acid] | < 50
O=C(O)[C@H](CCN(CCCCc1ccc2c(n1)NCCC2)CCOc1cc(F)cc(F)c1)Nc1ncnc2ccccc12 [Compound 47, (S)-4-((2-(3,5-difluorophenoxy)ethyl) (4-(5,6,7,8-tetrahydro-1,8-naphthyridin-2-yl)butyl)amino)-2-(quinazolin-4-ylamino) butanoic Acid] | < 50
